{"source": "ChEMBL document CHEMBL1147715", "about": "“Gatifloxacin derivatives: synthesis, antimycobacterial activities, and inhibition of Mycobacterium tuberculosis DNA gyrase” (Bioorg Med Chem Lett, 2006)", "tested_on": "Mycobacterium tuberculosis", "assay": "Antimycobacterial activity against multi-drug resistant Mycobacterium tuberculosis", "format": "functional", "data": [{"smiles": "COc1c(N2CCN(Cn3c(O)c(/N=N/C(N)=O)c4ccccc43)C(C)C2)c(F)cc2c(=O)c(C(=O)O)cn(C3CC3)c12", "note": "(configuration not stated)", "values": [{"measurement": "MIC", "result": 0.05, "unit": "µg/mL"}]}, {"smiles": "COc1c(N2CCN(Cn3c(O)c(/N=N/C(=N)S)c4cc(Cl)ccc43)C(C)C2)c(F)cc2c(=O)c(C(=O)O)cn(C3CC3)c12", "note": "(configuration not stated)", "values": [{"measurement": "MIC", "result": 0.78, "unit": "µg/mL"}]}, {"smiles": "COc1c(N2CCN(CN3C(=O)/C(=N\\c4ccc(S(=O)(=O)Nc5ncccn5)cc4)c4cc(Cl)ccc43)C(C)C2)c(F)cc2c(=O)c(C(=O)O)cn(C3CC3)c12", "note": "(configuration not stated)", "values": [{"measurement": "MIC", "result": 0.1, "unit": "µg/mL"}]}, {"smiles": "COc1c(N2CCN(Cn3c(O)c(/N=N/C(=N)S)c4ccccc43)C(C)C2)c(F)cc2c(=O)c(C(=O)O)cn(C3CC3)c12", "note": "(configuration not stated)", "values": [{"measurement": "MIC", "result": 0.2, "unit": "µg/mL"}]}, {"smiles": "COc1c(N2CCN(CN3C(=O)/C(=N\\c4ccc(S(=O)(=O)Nc5ncccn5)cc4)c4ccccc43)C(C)C2)c(F)cc2c(=O)c(C(=O)O)cn(C3CC3)c12", "note": "(configuration not stated)", "values": [{"measurement": "MIC", "result": 0.1, "unit": "µg/mL"}]}, {"smiles": "COc1c(N2CCN(Cn3c(O)c(/N=N/C(N)=O)c4cc(Cl)ccc43)C(C)C2)c(F)cc2c(=O)c(C(=O)O)cn(C3CC3)c12", "note": "(configuration not stated)", "values": [{"measurement": "MIC", "result": 0.78, "unit": "µg/mL"}]}, {"smiles": "COc1c(N2CCN(Cn3c(O)c(/N=N/C(=O)c4ccncc4)c4cc(F)ccc43)C(C)C2)c(F)cc2c(=O)c(C(=O)O)cn(C3CC3)c12", "note": "(configuration not stated)", "values": [{"measurement": "MIC", "result": 0.78, "unit": "µg/mL"}]}, {"smiles": "COc1c(N2CCN(Cn3c(O)c(/N=N/C(=O)c4ccncc4)c4cc(C)ccc43)C(C)C2)c(F)cc2c(=O)c(C(=O)O)cn(C3CC3)c12", "note": "(configuration not stated)", "values": [{"measurement": "MIC", "result": 0.78, "unit": "µg/mL"}]}, {"smiles": "COc1c(N2CCN(CN3C(=O)/C(=N\\c4ccc(S(=O)(=O)Nc5ncccn5)cc4)c4cc(C)ccc43)C(C)C2)c(F)cc2c(=O)c(C(=O)O)cn(C3CC3)c12", "note": "(configuration not stated)", "values": [{"measurement": "MIC", "result": 0.78, "unit": "µg/mL"}]}, {"smiles": "COc1c(N2CCN(Cn3c(O)c(/N=N/C(=N)S)c4cc(C)ccc43)C(C)C2)c(F)cc2c(=O)c(C(=O)O)cn(C3CC3)c12", "note": "(configuration not stated)", "values": [{"measurement": "MIC", "result": 0.78, "unit": "µg/mL"}]}, {"smiles": "COc1c(N2CCN(CN3C(=O)/C(=N\\c4ccc(S(=O)(=O)Nc5ncccn5)cc4)c4cc(F)ccc43)C(C)C2)c(F)cc2c(=O)c(C(=O)O)cn(C3CC3)c12", "note": "(configuration not stated)", "values": [{"measurement": "MIC", "result": 0.1, "unit": "µg/mL"}]}, {"smiles": "COc1c(N2CCN(Cn3c(O)c(/N=N/C(=O)c4ccncc4)c4ccccc43)C(C)C2)c(F)cc2c(=O)c(C(=O)O)cn(C3CC3)c12", "note": "(configuration not stated)", "values": [{"measurement": "MIC", "result": 0.2, "unit": "µg/mL"}]}, {"smiles": "COc1c(N2CCN(Cn3c(O)c(/N=N/C(=N)S)c4cc(F)ccc43)C(C)C2)c(F)cc2c(=O)c(C(=O)O)cn(C3CC3)c12", "note": "(configuration not stated)", "values": [{"measurement": "MIC", "result": 0.1, "unit": "µg/mL"}]}, {"smiles": "COc1c(N2CCN(Cn3c(O)c(/N=N/C(N)=O)c4cc(F)ccc43)C(C)C2)c(F)cc2c(=O)c(C(=O)O)cn(C3CC3)c12", "note": "(configuration not stated)", "values": [{"measurement": "MIC", "result": 0.2, "unit": "µg/mL"}]}, {"smiles": "COc1c(N2CCN(Cn3c(O)c(/N=N/C(N)=O)c4cc(C)ccc43)C(C)C2)c(F)cc2c(=O)c(C(=O)O)cn(C3CC3)c12", "note": "(configuration not stated)", "values": [{"measurement": "MIC", "result": 0.78, "unit": "µg/mL"}]}, {"smiles": "COc1c(N2CCN(Cn3c(O)c(/N=N/C(=O)c4ccncc4)c4cc(Cl)ccc43)C(C)C2)c(F)cc2c(=O)c(C(=O)O)cn(C3CC3)c12", "note": "(configuration not stated)", "values": [{"measurement": "MIC", "result": 0.78, "unit": "µg/mL"}]}, {"smiles": "COc1c(N2CCNC(C)C2)c(F)cc2c(=O)c(C(=O)O)cn(C3CC3)c12", "note": "(configuration not stated) [GATIFLOXACIN]", "values": [{"measurement": "MIC", "result": 3.12, "unit": "µg/mL"}]}]}
